From ChEMBL document CHEMBL5724914, “Linking interpersonal differences in gut microbiota composition and drug biotransformation activity” (2024)

Columns and labels:
[1] = The drug is tested on Z-021 corresponding to metagenome with ENA study accession number: PRJEB37062 and ENA sample accession number: ERS12561820 for biotransformation under anaerobic condition. The drug concentrations were measured over 9 timepoints collected between 0 and 24 hours of incubation by liquid-chromatography-coupled mass spectrometry (LC–MS); conditions: 2 µM
[2] = The drug is tested on Z-020 corresponding to rabbit gut metagenome with ENA study accession number: PRJEB37062 and ENA sample accession number: ERS12561819 for biotransformation under anaerobic condition. The drug concentrations were measured over 9 timepoints collected between 0 and 24 hours of incubation by liquid-chromatography-coupled mass spectrometry (LC–MS); conditions: 2 µM
[3] = The drug is tested on Z-019 corresponding to rat gut metagenome with ENA study accession number: PRJEB37062 and ENA sample accession number: ERS12561818 for biotransformation under anaerobic condition. The drug concentrations were measured over 9 timepoints collected between 0 and 24 hours of incubation by liquid-chromatography-coupled mass spectrometry (LC–MS); conditions: 2 µM
[4] = The drug is tested on Z-018 corresponding to pig gut metagenome with ENA study accession number: PRJEB37062 and ENA sample accession number: ERS12561817 for biotransformation under anaerobic condition. The drug concentrations were measured over 9 timepoints collected between 0 and 24 hours of incubation by liquid-chromatography-coupled mass spectrometry (LC–MS); conditions: 2 µM
[5] = The drug is tested on Z-017 corresponding to mouse gut metagenome with ENA study accession number: PRJEB37062 and ENA sample accession number: ERS12561816 for biotransformation under anaerobic condition. The drug concentrations were measured over 9 timepoints collected between 0 and 24 hours of incubation by liquid-chromatography-coupled mass spectrometry (LC–MS); conditions: 2 µM
[6] = The drug is tested on Z-016 corresponding to mouse gut metagenome with ENA study accession number: PRJEB37062 and ENA sample accession number: ERS12561815 for biotransformation under anaerobic condition. The drug concentrations were measured over 9 timepoints collected between 0 and 24 hours of incubation by liquid-chromatography-coupled mass spectrometry (LC–MS); conditions: 2 µM
[7] = The drug is tested on Z-001 corresponding to mouse gut metagenome with ENA study accession number: PRJEB37062 and ENA sample accession number: ERS12561801 for biotransformation under anaerobic condition. The drug concentrations were measured over 9 timepoints collected between 0 and 24 hours of incubation by liquid-chromatography-coupled mass spectrometry (LC–MS); conditions: 2 µM
[8] = The drug is tested on WLS-350 corresponding to human gut metagenome with ENA study accession number: PRJEB37062 and ENA sample accession number: ERS12561789 for biotransformation under anaerobic condition. The drug concentrations were measured over 9 timepoints collected between 0 and 24 hours of incubation by liquid-chromatography-coupled mass spectrometry (LC–MS); conditions: 2 µM
[9] = The drug is tested on WLS-220 corresponding to human gut metagenome with ENA study accession number: PRJEB37062 and ENA sample accession number: ERS12561769 for biotransformation under anaerobic condition. The drug concentrations were measured over 9 timepoints collected between 0 and 24 hours of incubation by liquid-chromatography-coupled mass spectrometry (LC–MS); conditions: 2 µM
[10] = The drug is tested on WLS-082 corresponding to human gut metagenome with ENA study accession number: PRJEB37062 and ENA sample accession number: ERS12561751 for biotransformation under anaerobic condition. The drug concentrations were measured over 9 timepoints collected between 0 and 24 hours of incubation by liquid-chromatography-coupled mass spectrometry (LC–MS); conditions: 2 µM
[11] = The drug is tested on WLS-039 corresponding to human gut metagenome with ENA study accession number: PRJEB37062 and ENA sample accession number: ERS12561746 for biotransformation under anaerobic condition. The drug concentrations were measured over 9 timepoints collected between 0 and 24 hours of incubation by liquid-chromatography-coupled mass spectrometry (LC–MS); conditions: 2 µM
[12] = human gut metagenome, 24 h, 2 µM
[13] = human gut metagenome, 24 h, 2 µM; remark: listed apart in the source
[14] = human gut metagenome, 24 h, 2 µM; remark: listed apart in the source
[15] = human gut metagenome, 24 h, 2 µM; remark: listed apart in the source
[16] = human gut metagenome, 24 h, 2 µM; remark: listed apart in the source
[17] = human gut metagenome, 24 h, 2 µM; remark: listed apart in the source
[18] = human gut metagenome, 24 h, 2 µM; remark: listed apart in the source
[19] = human gut metagenome, 24 h, 2 µM; remark: listed apart in the source
[20] = human gut metagenome, 24 h, 2 µM; remark: listed apart in the source
Note: call rule not given here.

SMILES | Bacterial Biotransformation [1] | Bacterial Biotransformation [2] | Bacterial Biotransformation [3] | Bacterial Biotransformation [4] | Bacterial Biotransformation [5] | Bacterial Biotransformation [6] | Bacterial Biotransformation [7] | Bacterial Biotransformation [8] | Bacterial Biotransformation [9] | Bacterial Biotransformation [10] | Bacterial Biotransformation [11] | Bacterial Biotransformation [12] | Bacterial Biotransformation [13] | Bacterial Biotransformation [14] | Bacterial Biotransformation [15] | Bacterial Biotransformation [16] | Bacterial Biotransformation [17] | Bacterial Biotransformation [18] | Bacterial Biotransformation [19] | Bacterial Biotransformation [20]
O=C(O)CCc1nc(-c2ccccc2)c(-c2ccccc2)o1 [OXAPROZIN] | Compound metabolized | Compound metabolized | Compound NOT metabolized | Compound metabolized | Compound NOT metabolized | Compound metabolized | Compound NOT metabolized | Compound metabolized | Compound metabolized | Compound metabolized | Compound metabolized | Compound metabolized | Compound metabolized | Compound NOT metabolized | Compound metabolized | Compound metabolized | Compound metabolized | Compound metabolized | Compound metabolized | Compound metabolized
CC(C)(C)NC[C@H](O)COc1ccccc1C1CCCC1.CC(C)(C)NC[C@H](O)COc1ccccc1C1CCCC1.O=S(=O)(O)O [PENBUTOLOL SULFATE] | Compound metabolized | Compound metabolized | Compound NOT metabolized | Compound metabolized | Compound NOT metabolized | Compound NOT metabolized | Compound metabolized | Compound metabolized | Compound metabolized | Compound metabolized | Compound metabolized | Compound metabolized | Compound NOT metabolized | Compound metabolized | Compound metabolized | Compound metabolized | Compound metabolized | Compound metabolized | Compound metabolized | Compound metabolized
CCOc1ccc(NC(C)=O)cc1 [PHENACETIN] | Compound NOT metabolized | Compound NOT metabolized | Compound NOT metabolized | Compound NOT metabolized | Compound NOT metabolized | Compound NOT metabolized | Compound NOT metabolized | Compound NOT metabolized | Compound NOT metabolized | Compound NOT metabolized | Compound NOT metabolized | Compound NOT metabolized | Compound NOT metabolized | Compound NOT metabolized | Compound NOT metabolized | Compound NOT metabolized | Compound NOT metabolized | Compound NOT metabolized | Compound NOT metabolized | Compound NOT metabolized
CC(C(=O)O)c1ccc2c(c1)Cc1cccnc1O2 (stereo not given) [PRANOPROFEN] | Compound metabolized | Compound metabolized | Compound NOT metabolized | Compound metabolized | Compound NOT metabolized | Compound metabolized | Compound metabolized | Compound metabolized | Compound metabolized | Compound metabolized | Compound metabolized | Compound metabolized | Compound metabolized | Compound metabolized | Compound metabolized | Compound metabolized | Compound metabolized | Compound metabolized | Compound metabolized | Compound metabolized
CCc1nc(N)nc(N)c1-c1ccc(Cl)cc1 [PYRIMETHAMINE] | Compound NOT metabolized | Compound NOT metabolized | Compound NOT metabolized | Compound NOT metabolized | Compound NOT metabolized | Compound NOT metabolized | Compound NOT metabolized | Compound NOT metabolized | Compound NOT metabolized | Compound NOT metabolized | Compound NOT metabolized | Compound NOT metabolized | Compound NOT metabolized | Compound NOT metabolized | Compound NOT metabolized | Compound NOT metabolized | Compound NOT metabolized | Compound metabolized | Compound metabolized | Compound metabolized
COc1ccccc1OCC(O)CN1CCN(CC(=O)Nc2c(C)cccc2C)CC1 (stereo not given) [RANOLAZINE] | Compound metabolized | Compound NOT metabolized | Compound NOT metabolized | Compound NOT metabolized | Compound NOT metabolized | Compound NOT metabolized | Compound NOT metabolized | Compound NOT metabolized | Compound NOT metabolized | Compound NOT metabolized | Compound NOT metabolized | Compound NOT metabolized | Compound NOT metabolized | Compound NOT metabolized | Compound NOT metabolized | Compound NOT metabolized | Compound NOT metabolized | Compound NOT metabolized | Compound NOT metabolized | Compound NOT metabolized
